Consider six compounds from patent US11547737B2, “Compositions and methods for treating virus infection” (priority 2020, dated 2023).

A short description of data set [1]: physchem.
Data set [2] is described as follows: Solid form stability of CHP forms by XRPD (storage, drying, DVS).
In data set [3] the test system is SARS-CoV-2. Nature of the data set: microbe, parasite or virus in culture. As to conditions: for antiviral activity: used alone; for EC50: read-out: Effective drug concentration (EC50). It counts as cell-based.
For data set [4] the following is noted: muscle tissues and intestinal segments; cited from earlier work.
Data set [5] in a line: in vitro. As to conditions: African green monkey (Cercopithecus aethiops).
Data set [6] deals with Zn influx into the cell. The data set can be described thus: Zn penetration into the cells. It counts as cell-based.
For data set [7], the system named is Vero cells.
The test system of data set [8] is RTCs of SARS-CoV. As to conditions: in vitro; cited from earlier work.
Data set [9] concerns RTCs of equine arteritis virus (EAV). As to conditions: in vitro; cited from earlier work.
Data set [10] relates to COVID-19. As to conditions: hospitalized COVID-19 patients, compared to standard of care, interim trial results; cited from earlier work.

Structures are written as SMILES. Where two headings read alike, the source gives them in different places. Some results are limits rather than exact numbers.

In data set [1], `O=C1N[C@@H](Cc2cnc[nH]2)C(=O)N2CCC[C@@H]12` [CHP hydrate, cyclo(-His-Pro) hydrate] had a pKa of about 6.4. In addition, the “form by XRPD” value in [2] (post various temperature DVS (VT-DVS)) is “a mixture of Patterns 1 and 2”. Besides, the “change in form by XRPD” value is given as “no change in form” in [2] (post-DVS, 40% RH); “no change” in [2] (stored 40° C./75% RH, seven days); “converted to Pattern 1” in data set [2] (stored at 80° C., seven days); “no change” in data set [2] (stored at ambient light, seven days).
Regarding `O=C1N[C@@H](Cc2cnc[nH]2)C(=O)N2CCC[C@@H]12` [CHP, Cyclo(-His-Pro)], the “Selectivity index (SI) CC50/EC50” value in [3] (calculated CC50/EC50) is recorded as at least 1.6. Further, the antiviral activity entry in data set [3] (at a concentration of 10 μmol or lower) is on record as “does not show antiviral activity”; in data set [3] (at the concentration of 30 mmol), “shows an antiviral activity”. In [4], the “zinc absorption and uptake” value is “enhanced zinc absorption and uptake”.
For `CCN(CC)CCCC(C)Nc1ccnc2cc(Cl)ccc12` (stereo not drawn) [Chloroquine, chloroquine], the CC50 in data set [5] is over 100 µM. For the same compound, the “Zn penetration into the cells” value in data set [6] was “an increase of Zn penetration into the cells”. The EC50 in [3] (Severe acute respiratory syndrome coronavirus 2, Vero) stood at 13 µM.
For the compound `O=C1N[C@@H](Cc2cnc[nH]2)C(=O)N2CCC[C@@H]12` [Pattern 1], the “form by XRPD” value in data set [2] (Pattern 1 post dynamic vapor sorption (DVS)) is listed as “changed to Pattern 2”.
Turning to `[Zn+2]` [Zn, zinc], the “cytotoxicity (cell killing)” value in data set [7] (at the concentration of 600 μmol) was “kills the cells”. In addition, in data set [7] (read-out: Cytotoxicity (CC50), Vero cells, concentration resulting in 50% cell death), the CC50 worked out at 486 µM. For the same compound, the “RNA-synthesizing activity of the RTCs” value in data set [8] and in data set [9] was “efficiently inhibits” each time. The EC50 in data set [3] (Vero cells, SARS-CoV-2 MOI 0.1, concentration inhibiting virus replication by 50%) worked out at 480 µM. Further, in data set [3] (at concentrations 200 μmol or lower), the antiviral activity result was “does not show any antiviral activity”.
Consider `CCN(CCO)CCCC(C)Nc1ccnc2cc(Cl)ccc12` (stereo not drawn) [hydroxychloroquine], for which, in [10], the “reduction in the mortality” value is given as “little or no reduction”.
